Measured values from patent EP4653435A1, “PRMT5-MTA INHIBITOR” (Suzhou Puhe Biopharma Co., Ltd., priority 2023, dated 2024).
Read-outs that look alike come from different tables or passages of the source.

Key:
HCT116-MTAPwt = assay: 2D antiproliferative assay (CTG cell viability), wild-type cells; assay type: cell-based; conditions: Homo sapiens, HCT-116, 7-10 days
Procedure: (§1) HCT116 wild-type and MTAP-deficient cells were cultured in McCoy's 5A medium containing 10% FBS and 1% penicillin-streptomycin, and cultured in a 37°C, 5% CO2 constant temperature incubator. 40 µL of cell suspension was introduced into each well of a 384-well microplate. 40 nL of different concentrations of test compounds were added to each well using an Echo, before culturing in a 37°C, 5% CO2 constant temperature incubator for 7-10 days. 40 µL of CTG solution (Promega, Cat No. G7573) was added to each well and incubated in a 37°C, 5% CO2 constant temperature incubator for 30 minutes in the dark.

HCT116-MTAPdel = assay: 2D antiproliferative assay (CTG cell viability), MTAP-deficient cells; assay type: cell-based; conditions: for IC50: Homo sapiens; for HCT116WT IMTAPdel selectivity: ratio IC50 wild type / MTAPdel, antiproliferation
Procedure: as §1

[1] = Liver microsomal stability assay, human; conditions: liver microsomes
Procedure: The compounds to be tested were co-incubated with liver microsomes of different species with or without the addition of NADPH. The final concentration of the test compounds in the test system was 1 µM, the final concentration of NADPH was 1 mM, and the final concentration of liver microsomes was 0.5 mg/mL.

[2] = HCT-116, HCT116 MTAP-deficient cells, 7-10 days, CTG, read-out: HCT116-MTAPdel/IC50/nM

Row | Structure (SMILES) | IC50 (HCT116-MTAPwt) [nM] | IC50 (HCT116-MTAPdel; [2]) [nM] | HCT116WT IMTAPdel selectivity (HCT116-MTAPdel) | CLint scaled at 1 µM [1] [mL/min/kg] | IC50 (HCT116-MTAPdel; HCT-116, read-out: HCT116-MTAPdel/IC50/nM) [nM] | CLint scaled at 1 h, 1 µM [1] [mL/min/kg]
1 | Cn1ncc2c(NC(=O)C(=O)N(CC(F)(F)F)[C@H]3COc4cc(C(F)(F)F)ccc43)cnc(N)c21 [Compound P20b] | > 10000 | 883 | 11 | – | – | –
2 | C[C@H]1CC[C@H](c2ccc3sc(CN(C)C)nc3c2)N(C(=O)C(=O)Nc2cnc(N)c3c2cnn3C)C1 (racemic) [Compound P14] | 295 | 11 | 27 | – | – | –
3 | CC(=O)N1CCC(Nc2cc(C(=O)NC[C@H](O)CN3CCc4ccccc4C3)ncn2)CC1 [GSK3326595, reference compound] | 72 | 17 | 4 | – | – | –
4 | C[C@H]1COC[C@@H](c2ccc(C(F)(F)F)cn2)N1C(=O)C(=O)Nc1cnc(N)c2c1cnn2C [Compound P11a] | > 10000 | 1910 | >5 | – | – | –
5 | Cn1ncc2c(NC(=O)C(=O)N(C3CC3)[C@H]3COc4cc(C(F)(F)F)ccc43)cnc(N)c21 [Compound P21a] | > 10000 | 978 | 10 | – | – | –
6 | [2H]C([2H])([2H])n1ncc2c(NC(=O)C(=O)N(C)[C@@H]3COc4cc(C(F)(F)F)ccc43)cnc(N)c21 [Compound P23] | 1710 | 17 | 101 | – | – | –
7 | Cn1ncc2c(NC(=O)C(=O)N(CC(F)(F)F)[C@@H]3COc4cc(C(F)(F)F)ccc43)cnc(N)c21 [Compound P20a] | 6020 | 28 | 215 | 19.2 | – | –
8 | Cn1ncc2c(NC(=O)C(=O)N(C3CC3)[C@@H]3COc4cc(C(F)(F)F)ccc43)cnc(N)c21 [Compound P21b] | 847 | 6 | 141 | – | – | –
9 | CN(C(=O)C(=O)Nc1cnc(N)c2c1cnn2C)[C@@H]1COc2cc(OC(F)(F)F)ccc21 [Compound P30a] | 1550 | 7 | 221 | – | – | –
10 | CN(C(=O)C(=O)Nc1cnc(N)c2c1cnn2C)[C@H]1COc2cc(-c3cncc(Cl)c3)ccc21 [Compound H1b] | > 10000 | 300 | >33 | – | – | –
11 | C[C@H]1COC[C@@H](c2ccc(-c3cncc(Cl)c3)cn2)N1C(=O)C(=O)Nc1cnc(N)c2c1cnn2C [Compound P13a] | > 10000 | 616 | >16 | – | – | –
12 | CN(C(=O)C(=O)Nc1cnc(N)c2c1cnn2C)[C@@H]1COc2cc(-c3cncc(Cl)c3)ccc21 [Compound H1a] | 2320 | 9 | 258 | – | – | –
13 | [2H]C([2H])([2H])n1ncc2c(NC(=O)C(=O)N(C)[C@@H]3COCc4nc(C(F)(F)F)ccc43)cnc(N)c21 [Compound P26] | 4550 | 12 | 380 | – | – | –
14 | C[C@@H]1CC[C@@H](c2ccc3scnc3c2)N(C(=O)C(=O)Nc2cnc(N)c3c2cnn3C)C1 [Compound P3a] | > 10000 | – | – | – | 666 | –
15 | Cn1ncc2c(NC(=O)C(=O)NC3COc4cc(C(F)(F)F)ccc43)cnc(N)c21 (stereo not drawn) [Compound A1, reference compound] | > 10000 | > 10000 | – | – | – | –
16 | CCn1ncc2c(NC(=O)C(=O)N(Cc3ccc(C(F)(F)F)cn3)[C@H](C)c3ncccn3)cnc(N)c21 [Compound P6] | 1300 | 18 | 72 | – | – | –
17 | C[C@H]1CC[C@H](c2ccc3sc(C4CCOCC4)nc3c2)N(C(=O)C(=O)Nc2cnc(N)c3c2cnn3C)C1 (racemic) [Compound P18] | 900 | 14 | 64 | – | – | –
18 | CSc1ccc2c(c1)OCC2N(C)C(=O)C(=O)Nc1cnc(N)c2c1cnn2C (stereo not drawn) [Compound P31] | 3580 | 21 | 171 | – | – | –
19 | CN(C(=O)C(=O)Nc1cnc(N)c2c1cnn2C)[C@H]1COCc2nc(C(F)(F)F)ccc21 [Compound P9b] | > 10000 | 883 | >11 | – | – | –

Row | Structure (SMILES) | IC50 (HCT116-MTAPwt) [nM] | IC50 (HCT116-MTAPdel; [2]) [nM] | HCT116WT IMTAPdel selectivity (HCT116-MTAPdel) | CLint scaled at 1 µM [1] [mL/min/kg] | IC50 (HCT116-MTAPdel; HCT-116, read-out: HCT116-MTAPdel/IC50/nM) [nM] | CLint scaled at 1 h, 1 µM [1] [mL/min/kg]
20 | C[C@H]1CC[C@H](c2ccc3sc(C(F)(F)F)nc3c2)N(C(=O)C(=O)Nc2cnc(N)c3c2cnn3C)C1 (racemic) [Compound P16] | 891 | 11 | 81 | – | – | –
21 | C[C@H](c1ncccn1)N(Cc1ccc(-c2cncc(Cl)c2)cn1)C(=O)C(=O)Nc1cnc(N)c2c1cnn2C [Compound P8] | 161 | 4 | 40 | – | – | –
22 | CCN(C(=O)C(=O)Nc1cnc(N)c2c1cnn2C)[C@H]1COCc2nc(C(F)(F)F)ccc21 [Compound P28a] | 2340 | 986 | 2 | – | – | –
23 | Cc1nc2cc(C3CCC(C)CN3C(=O)C(=O)Nc3cnc(N)c4c3cnn4C)ccc2s1 (racemic) [Compound P10] | 800 | 10 | 80 | – | – | –
24 | C[C@H]1CC[C@H](c2ccc3sc(-c4cccnc4)nc3c2)N(C(=O)C(=O)Nc2cnc(N)c3c2cnn3C)C1 (racemic) [Compound P17] | 606 | 8 | 76 | – | – | –
25 | C[C@@H]1COC[C@H](c2ccc(C(F)(F)F)cn2)N1C(=O)C(=O)Nc1cnc(N)c2c1cnn2C [Compound P11b] | 427 | 8 | 53 | – | – | –
26 | C[C@H]1COC[C@@H](c2ccc(OC(F)(F)F)cc2)N1C(=O)C(=O)Nc1cnc(N)c2c1cnn2C (racemic) [Compound P12] | 607 | 5 | 121 | – | – | –
27 | CC1CCC(c2ccc3sc(C4CCN(C)CC4)nc3c2)N(C(=O)C(=O)Nc2cnc(N)c3c2cnn3C)C1 (racemic) [Compound P5] | 36 | 4 | 9 | – | – | 10.7
28 | CN(C(=O)C(=O)Nc1cnc(N)c2c1cnn2C)[C@H]1COc2cc(C(F)(F)F)ccc21 [Compound P2b] | > 10000 | 118 | 85 | – | – | –
29 | [2H]C([2H])([2H])N(C(=O)C(=O)Nc1cnc(N)c2c1cnn2C)[C@@H]1COCc2nc(C(F)(F)F)ccc21 [Compound P27] | 2110 | 15 | 141 | – | – | –
30 | CCN(C(=O)C(=O)Nc1cnc(N)c2c1cnn2C)[C@H]1COc2cc(C(F)(F)F)ccc21 [Compound P19b] | 3860 | 261 | 15 | – | – | –
31 | C[C@H](c1ncccn1)N(Cc1ccc(C(F)(F)F)cn1)C(=O)C(=O)Nc1cnc(N)c2c1cnn2C1CC1 [Compound P7] | 2520 | 56 | 45 | – | – | –
32 | CN(C(=O)C(=O)Nc1cnc(N)c2c1cnn2C)[C@H]1COc2cc(OC(F)(F)F)ccc21 [Compound P30b] | > 10000 | 191 | >52 | – | – | –
33 | C[C@H](c1ncccn1)N(Cc1ccc(C(F)(F)F)cn1)C(=O)C(=O)Nc1cnc(N)c2cnn(C)c12 [Compound P4] | > 10000 | 813 | >12 | – | – | –
34 | CCn1ncc2c(NC(=O)C(=O)N(C)[C@@H]3COc4cc(C(F)(F)F)ccc43)cnc(N)c21 [Compound P24] | > 10000 | 2410 | >4 | – | – | –
35 | CN(C(=O)C(=O)Nc1cnc(N)c2c1cnn2C)[C@H]1COCc2nc(-c3cncc(Cl)c3)ccc21 [Compound H2a] | > 10000 | 224 | >45 | – | – | –
36 | CCn1ncc2c(NC(=O)C(=O)N(C)[C@@H]3COCc4nc(C(F)(F)F)ccc43)cnc(N)c21 [Compound P25] | > 10000 | 1260 | >8 | – | – | –
37 | C[C@@H]1COC[C@H](c2ccc(-c3cncc(Cl)c3)cn2)N1C(=O)C(=O)Nc1cnc(N)c2c1cnn2C [Compound P13b] | 506 | 2 | 253 | – | – | –
